Reference: patent publication US10017527B2, “KLK4 inhibitors” (Universiteit Antwerpen, priority 2014, dated 2018)

What was measured:
Type in all cases: biochemical
KLK4 [1] = biological target: T1, KLK4 (Homo sapiens, UniProt Q9Y5K2); assay: KLK4 enzymatic inhibition, fluorogenic substrate Boc-Val-Pro-Arg-AMC
T1 construct: purchased Viktor Magdolen (TUM), supplied by an academic laboratory
Procedure: The substrate was obtained form Bachem and the enzyme was provided by Viktor Magdolen (TUM). The reaction was monitored with an excitation wavelength of 355 nm and emission wavelength of 460 nm. The initial rate was determined between 2500000 and 4500000 mRFU/min. The reaction mixture contained 25 μM substrate and approximately 1 mU of enzyme in 145 μL of buffer in a final volume of […]. A 50 mM Tris buffer, pH 8.3, was used. From each inhibitor concentration, 5 μL was added, obtaining a final concentration from 0 to 250 μM in a total volume of 0.2 mL. Activity measurements were routinely performed in duplicate. […] IC50 values were obtained by fitting the data with the four-parameter logistics equation using Grafit 7.
[formula] where s=slope factor, v=rate, I0=inhibitor concentration, and range=the fitted uninhibited value minus the background. The equation assumes they falls with increasing x.
(§1) Inhibitor stock solutions were prepared in DMSO and stored at −20° C. Because the compounds described in this paper completely inactivate KLK4 following pseudo first-order kinetics, the IC50 value is inversely correlated with the second-order rate constant of inactivation. For a simple pseudo first-order inactivation process, the activity after incubation with inhibitor (vi) varies with the inhibitor concentration (i), as described in the following equation: vi=v0×e^−k t, where vo is the activity in absence of inhibitor, k is the second-order rate constant of inactivation, and t is the time. The inactivation rate constant was determined from the time course of inhibition.

KLK4 [2] = biological target: T1, KLK4; assay: KLK4 inactivation kinetics from progress curves (kobs vs inhibitor concentration); conditions: for Irreversible (KLK4): irreversible binding to KLK4, Yes/No
Procedure: as §1
The inhibitor was mixed with the substrate (250 μM final concentration), and the buffer solution with the enzyme was added at the time zero. […] The progress curves show the absorbance of aminomethylcoumarine produced as a function of time. Initially, no inhibitor is bound to the enzyme, and the tangent to the progress curve (dA/dt) is proportional to the concentration of the free enzyme. The concentration of free enzyme decreases over time due to the kinetics of inhibitor binding, as described above. Progress curves were recorded in pseudo first-order conditions ([I]0>>[E]0) and with less than 10% conversion of the substrate during the entire time course. In these conditions, dA/dt decreases exponentially with time. The progress curves were fitted with the integrated rate equation to yield a value for kobs, a pseudofirst-order rate constant At=v0[1−e^−k^obs^t]/kobs+A0 where At=absorbance at time t, A0=absorbance at time zero, and v0=uninhibited initial rate.
The apparent second-order rate constant (kapp) was calculated from the slope of the linear part of the plot of kobs versus the inhibitor concentration ([I]0). In case of competition between the inhibitor and the substrate, kapp is smaller than the “real” second order rate constant k discussed above because a certain fraction of the enzyme is present as an enzyme-substrate complex. kapp depends on the substrate concentration used in the experiment, as described by Lambeir et al. (Lambeir, Borloo et al. 1996).

KLK2 (human) = biological target: T2, KLK2 (human) (Homo sapiens, UniProt P20151); assay: KLK2 inhibition, fluorogenic substrate H-Pro-Phe-Arg-AMC
T2 construct: purchased Viktor Magdolen, TUMunich (TUM), supplied by an academic laboratory
T2 sequence (P20151 25-261): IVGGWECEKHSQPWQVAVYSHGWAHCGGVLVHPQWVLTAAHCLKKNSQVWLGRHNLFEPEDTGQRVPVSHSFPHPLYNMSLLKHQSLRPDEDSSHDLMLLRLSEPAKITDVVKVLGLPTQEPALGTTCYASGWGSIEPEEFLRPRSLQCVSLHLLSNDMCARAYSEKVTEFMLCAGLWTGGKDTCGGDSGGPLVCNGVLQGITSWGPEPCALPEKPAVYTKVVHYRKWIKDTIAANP
From the text: (§2) The IC50 values For KLK1, KLK2 and KLK8 were obtained in a similar way. For plasmin, tPA, thrombin, Fxa, HNE, Plasma kallikrein Chromogenic substrates were used (absorption: 405 nm). (KLK2, KLK4, KLK8 were supplied by Viktor Magdolen TUMunich (TUM)).

KLK1 (human) = biological target: T3, KLK1 (human) (Homo sapiens, UniProt P06870); assay: KLK1 inhibition, fluorogenic substrate H-Pro-Phe-Arg-AMC
T3 construct: purchased Prospec
T3 sequence (P06870 25-262): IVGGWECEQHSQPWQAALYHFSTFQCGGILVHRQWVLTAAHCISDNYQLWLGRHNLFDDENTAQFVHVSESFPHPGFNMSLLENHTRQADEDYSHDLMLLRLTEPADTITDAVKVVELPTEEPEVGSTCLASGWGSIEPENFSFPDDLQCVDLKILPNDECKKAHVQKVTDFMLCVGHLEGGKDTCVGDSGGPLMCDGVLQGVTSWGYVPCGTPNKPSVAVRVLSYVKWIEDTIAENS
From the text: as §2

KLK8 (human) = biological target: T4, KLK8 (human) (Homo sapiens, UniProt O60259); assay: KLK8 inhibition, fluorogenic substrate Boc-Val-Pro-Arg-AMC
T4 construct: purchased Viktor Magdolen, TUMunich (TUM), supplied by an academic laboratory
T4 sequence (O60259 33-260): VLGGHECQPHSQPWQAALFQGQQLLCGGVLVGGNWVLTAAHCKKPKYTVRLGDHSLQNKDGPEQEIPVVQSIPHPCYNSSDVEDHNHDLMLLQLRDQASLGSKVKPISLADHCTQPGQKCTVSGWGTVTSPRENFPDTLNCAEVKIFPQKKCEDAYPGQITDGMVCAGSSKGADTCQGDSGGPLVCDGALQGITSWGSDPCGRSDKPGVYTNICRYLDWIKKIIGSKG
From the text: as §2

uPA (recombinant) = biological target: T5, uPA (recombinant) (Homo sapiens, UniProt P00749); assay: uPA inhibition, chromogenic substrate Biophen CS-61(44)
T5 construct: purchased Nodia

tPA (recombinant) = biological target: T6, tPA (recombinant) (Homo sapiens, UniProt P00750); assay: tPA inhibition, chromogenic substrate Biophen CS-05(88)
T6 construct: purchased Nodia
T6 sequence (P00750 36-562, species assumed): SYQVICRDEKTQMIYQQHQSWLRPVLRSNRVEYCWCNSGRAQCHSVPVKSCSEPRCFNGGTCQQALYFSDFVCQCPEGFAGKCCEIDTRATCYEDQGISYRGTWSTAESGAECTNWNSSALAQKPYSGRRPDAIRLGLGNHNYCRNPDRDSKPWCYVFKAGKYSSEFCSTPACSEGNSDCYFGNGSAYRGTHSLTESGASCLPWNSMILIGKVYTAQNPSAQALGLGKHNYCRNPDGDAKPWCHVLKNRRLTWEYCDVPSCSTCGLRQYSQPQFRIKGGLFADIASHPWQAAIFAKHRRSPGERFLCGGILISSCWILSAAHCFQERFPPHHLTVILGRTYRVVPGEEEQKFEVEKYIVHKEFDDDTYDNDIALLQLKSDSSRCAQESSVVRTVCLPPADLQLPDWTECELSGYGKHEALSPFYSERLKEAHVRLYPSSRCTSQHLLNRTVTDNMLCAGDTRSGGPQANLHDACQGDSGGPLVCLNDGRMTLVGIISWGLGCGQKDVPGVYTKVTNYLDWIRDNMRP
From the text: as §2

Thrombine (human plasma) = biological target: T7, Thrombine (human plasma) (Homo sapiens, UniProt P00734); assay: Thrombin inhibition, chromogenic substrate Biophen CS-21(66)
T7 construct: purchased Sigma-Aldrich; host or cells: human plasma

Plasmine (human plasma) = biological target: T8, Plasmine (human plasma) (Homo sapiens, UniProt P00747); assay: Plasmin inhibition, chromogenic substrate Biophen CS-21(66)
T8 construct: purchased Sigma-Aldrich; host or cells: human plasma
T8 sequence (P00747 581-810 limits assumed): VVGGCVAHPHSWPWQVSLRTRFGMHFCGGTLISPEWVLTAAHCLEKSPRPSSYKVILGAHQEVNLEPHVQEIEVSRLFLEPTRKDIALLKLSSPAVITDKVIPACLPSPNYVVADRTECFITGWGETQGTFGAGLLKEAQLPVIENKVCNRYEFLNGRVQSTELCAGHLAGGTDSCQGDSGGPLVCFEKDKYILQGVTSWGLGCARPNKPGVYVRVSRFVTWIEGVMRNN
T8 sequence (P00747 98-580 partner limits assumed): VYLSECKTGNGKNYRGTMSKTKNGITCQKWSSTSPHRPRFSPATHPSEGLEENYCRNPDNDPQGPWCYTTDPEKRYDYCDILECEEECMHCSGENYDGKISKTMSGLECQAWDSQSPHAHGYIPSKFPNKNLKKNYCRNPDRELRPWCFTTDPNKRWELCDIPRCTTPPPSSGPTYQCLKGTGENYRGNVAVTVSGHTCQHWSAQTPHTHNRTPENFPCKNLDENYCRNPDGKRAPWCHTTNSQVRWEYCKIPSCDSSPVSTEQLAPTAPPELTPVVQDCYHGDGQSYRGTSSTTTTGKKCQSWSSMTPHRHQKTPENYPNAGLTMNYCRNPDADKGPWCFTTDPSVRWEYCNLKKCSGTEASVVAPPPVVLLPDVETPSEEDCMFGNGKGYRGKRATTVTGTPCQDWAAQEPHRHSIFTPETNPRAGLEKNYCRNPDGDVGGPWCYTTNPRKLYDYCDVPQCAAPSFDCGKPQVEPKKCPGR
From the text: as §2

FXa = biological target: T9, FXa (Homo sapiens, UniProt P00742); assay: FXa inhibition, chromogenic substrate Biophen CS-11(32)
T9 construct: purchased Nodia
T9 sequence (P00742 235-488 limits assumed): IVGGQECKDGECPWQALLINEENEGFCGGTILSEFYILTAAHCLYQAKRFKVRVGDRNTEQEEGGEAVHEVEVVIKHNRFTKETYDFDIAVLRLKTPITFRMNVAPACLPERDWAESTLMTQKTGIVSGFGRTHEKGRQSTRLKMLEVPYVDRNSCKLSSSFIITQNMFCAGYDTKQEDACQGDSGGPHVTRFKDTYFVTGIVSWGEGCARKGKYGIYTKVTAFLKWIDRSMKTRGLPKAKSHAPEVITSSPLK
T9 sequence (P00742 41-179 partner limits assumed): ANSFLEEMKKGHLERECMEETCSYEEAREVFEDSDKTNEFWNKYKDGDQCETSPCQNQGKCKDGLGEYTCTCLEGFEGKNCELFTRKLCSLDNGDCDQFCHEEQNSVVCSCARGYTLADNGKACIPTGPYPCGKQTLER
From the text: as §2

PlasmaKLK (human plasma) = biological target: T10, PlasmaKLK (human plasma) (Homo sapiens, UniProt P03952); assay: Plasma kallikrein inhibition, chromogenic substrate Biophen CS-31(02)
T10 construct: purchased Sigma-Aldrich; host or cells: human plasma
T10 sequence (P03952 391-638 limits assumed): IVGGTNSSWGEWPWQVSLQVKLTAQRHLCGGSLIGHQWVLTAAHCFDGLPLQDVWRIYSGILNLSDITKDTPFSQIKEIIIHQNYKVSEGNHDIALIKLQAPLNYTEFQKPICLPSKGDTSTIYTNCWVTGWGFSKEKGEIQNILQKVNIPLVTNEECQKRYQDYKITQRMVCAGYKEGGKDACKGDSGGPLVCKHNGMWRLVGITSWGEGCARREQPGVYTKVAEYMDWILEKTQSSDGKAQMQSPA
T10 sequence (P03952 20-390 partner limits assumed): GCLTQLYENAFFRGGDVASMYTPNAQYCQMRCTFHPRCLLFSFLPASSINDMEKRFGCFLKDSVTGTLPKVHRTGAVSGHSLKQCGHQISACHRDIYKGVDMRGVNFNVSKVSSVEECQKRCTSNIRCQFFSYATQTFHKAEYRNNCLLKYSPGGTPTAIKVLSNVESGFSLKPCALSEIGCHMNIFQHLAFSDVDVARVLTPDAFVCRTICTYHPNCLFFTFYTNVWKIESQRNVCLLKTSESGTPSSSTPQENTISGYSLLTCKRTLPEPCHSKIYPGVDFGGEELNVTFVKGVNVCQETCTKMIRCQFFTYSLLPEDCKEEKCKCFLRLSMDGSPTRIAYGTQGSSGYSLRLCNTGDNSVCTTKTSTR
From the text: as §2

[3] = biological target: T11, Neurtophil Elastase(human) (Homo sapiens, UniProt P08246); assay: Neutrophil elastase inhibition, chromogenic substrate MeOSuc-Ala-Ala-Pro-Val-pNA
T11 construct: purchased Enzo-life sciences
T11 sequence (P08246 30-267): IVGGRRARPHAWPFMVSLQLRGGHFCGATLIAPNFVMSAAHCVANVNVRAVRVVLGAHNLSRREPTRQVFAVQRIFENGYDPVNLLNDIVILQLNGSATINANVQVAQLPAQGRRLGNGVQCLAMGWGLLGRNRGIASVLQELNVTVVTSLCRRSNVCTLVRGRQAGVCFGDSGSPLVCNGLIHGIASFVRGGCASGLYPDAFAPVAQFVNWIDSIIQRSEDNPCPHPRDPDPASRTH
From the text: as §2

AcHE = AcHE (Homo sapiens, UniProt P22303); assay: AcHE inhibition
Sequence of AcHE (P22303 32-614): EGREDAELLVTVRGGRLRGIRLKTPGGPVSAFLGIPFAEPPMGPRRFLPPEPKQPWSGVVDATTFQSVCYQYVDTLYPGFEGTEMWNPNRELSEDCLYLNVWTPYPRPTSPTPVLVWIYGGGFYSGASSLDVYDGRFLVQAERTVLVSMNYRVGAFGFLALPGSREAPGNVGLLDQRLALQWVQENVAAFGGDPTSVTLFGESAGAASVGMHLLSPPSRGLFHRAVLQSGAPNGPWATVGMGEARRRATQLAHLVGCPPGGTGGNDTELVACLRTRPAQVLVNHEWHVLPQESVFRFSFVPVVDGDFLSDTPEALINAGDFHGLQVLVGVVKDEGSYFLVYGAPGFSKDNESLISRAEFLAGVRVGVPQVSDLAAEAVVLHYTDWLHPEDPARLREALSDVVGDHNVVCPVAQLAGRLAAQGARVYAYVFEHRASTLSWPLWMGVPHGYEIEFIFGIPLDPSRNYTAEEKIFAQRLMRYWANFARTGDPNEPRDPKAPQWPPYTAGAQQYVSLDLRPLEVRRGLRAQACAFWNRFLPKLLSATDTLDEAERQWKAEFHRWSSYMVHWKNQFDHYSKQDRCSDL

Matriptase = biological target: T12, Matriptase (Homo sapiens, UniProt Q9Y5Y6); assay: Matriptase inhibition
T12 sequence (Q9Y5Y6 1-855): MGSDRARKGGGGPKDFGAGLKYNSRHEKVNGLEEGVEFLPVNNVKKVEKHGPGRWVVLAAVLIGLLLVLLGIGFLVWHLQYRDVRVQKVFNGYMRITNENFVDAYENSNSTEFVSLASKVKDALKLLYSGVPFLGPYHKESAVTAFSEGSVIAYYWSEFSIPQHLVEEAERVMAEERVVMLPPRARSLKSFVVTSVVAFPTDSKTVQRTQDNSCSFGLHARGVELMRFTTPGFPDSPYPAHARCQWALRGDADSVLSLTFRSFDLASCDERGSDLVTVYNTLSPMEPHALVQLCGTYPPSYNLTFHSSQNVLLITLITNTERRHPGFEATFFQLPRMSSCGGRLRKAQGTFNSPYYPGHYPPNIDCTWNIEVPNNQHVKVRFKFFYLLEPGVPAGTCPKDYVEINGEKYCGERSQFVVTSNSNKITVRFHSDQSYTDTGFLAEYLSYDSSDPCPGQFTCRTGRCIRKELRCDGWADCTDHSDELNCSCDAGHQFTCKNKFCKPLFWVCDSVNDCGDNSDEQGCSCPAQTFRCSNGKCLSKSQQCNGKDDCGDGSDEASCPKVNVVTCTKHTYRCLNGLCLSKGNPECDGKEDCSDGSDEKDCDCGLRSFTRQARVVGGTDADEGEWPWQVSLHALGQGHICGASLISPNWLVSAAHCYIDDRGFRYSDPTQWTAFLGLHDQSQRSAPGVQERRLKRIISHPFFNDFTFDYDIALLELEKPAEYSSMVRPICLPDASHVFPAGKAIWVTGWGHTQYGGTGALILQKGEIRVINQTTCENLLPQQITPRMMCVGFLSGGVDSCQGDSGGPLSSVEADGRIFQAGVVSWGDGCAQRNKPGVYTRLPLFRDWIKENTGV

T1 sequence (Q9Y5K2 31-254): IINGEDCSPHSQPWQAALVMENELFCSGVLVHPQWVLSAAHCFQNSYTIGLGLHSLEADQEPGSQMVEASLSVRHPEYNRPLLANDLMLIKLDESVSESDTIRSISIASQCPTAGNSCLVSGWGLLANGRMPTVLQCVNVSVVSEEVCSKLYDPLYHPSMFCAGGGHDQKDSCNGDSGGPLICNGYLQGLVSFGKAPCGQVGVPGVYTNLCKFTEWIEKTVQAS

Structure (SMILES) | IC50 (KLK4 [1]) | binding mechanism against KLK4 (KLK4 [2]) | IC50 (KLK2 (human)) | IC50 (KLK1 (human)) | IC50 (KLK8 (human)) | IC50 (uPA (recombinant)) | IC50 (tPA (recombinant)) | IC50 (Thrombine (human plasma)) | IC50 (Plasmine (human plasma)) | IC50 (FXa) | IC50 (PlasmaKLK (human plasma)) | IC50 [3] | IC50 (AcHE) | IC50 (Matriptase) | kapp KLK4 (KLK4 [2]; apparent second-order rate constant, substrate 250 μM) | Irreversible (KLK4) (KLK4 [2])
N=C(N)Nc1ccc(C(NC(=O)OCc2ccccc2)P(=O)(Oc2ccccc2)Oc2ccccc2)cc1 (stereo not drawn) [Compound 5a, benzyl (diphenoxyphosphoryl)(4-guanidinophenyl)methylcarbamate 2,2,2-trifluoroacetate, reference compound] | < 0.1 µM | reversible | < 0.1 µM | 0.1 to 1 µM | 1 to 2.5 µM | 2.5 to 10 µM | > 250 µM | > 250 µM | 2.5 to 10 µM | 2.5 to 10 µM | 2.5 to 10 µM | 10 to 250 µM | 10 to 250 µM | 2.5 to 10 µM |  | 
C#CCOCCOCCOC(=O)NC(c1ccc(NC(=N)N)cc1)P(=O)(Oc1ccccc1)Oc1ccccc1.O=C(O)C(F)(F)F (stereo not drawn) [Compound 27, 2-(2-(prop-2-yn-1-yloxy)ethoxy)ethyl ((diphenoxyphosphoryl)(4-guanidinophenyl)methyl)carbamate 2,2,2-trifluoroacetate] | < 0.1 µM |  | 1 to 2.5 µM | 2.5 to 10 µM | 10 to 250 µM | 2.5 to 10 µM | > 250 µM | > 250 µM |  | 10 to 250 µM | 10 to 250 µM | 2.5 to 10 µM | 10 to 250 µM | 2.5 to 10 µM | 16000 M⁻¹ s⁻¹ | Yes/
N=C(N)Nc1ccc(CC(NC(=O)OCc2ccccc2)P(=O)(Oc2ccccc2)Oc2ccccc2)cc1 (stereo not drawn) [UPA1, reference compound] | < 0.1 µM | reversible | < 0.1 µM | 2.5 to 10 µM | < 0.1 µM |  | 10 to 250 µM | 1 to 2.5 µM | 2.5 to 10 µM | 10 to 250 µM | 2.5 to 10 µM | 10 to 250 µM | 10 to 250 µM | 0.1 to 1 µM |  | No
